From US10562891B2, “Quinazolinones as PARP14 inhibitors” (Ribon Therapeutics Inc., priority 2017, dated 2020)
Counter-ions that a name gives are not always drawn.

Biological target: catalytic domain of human PARP14 (Homo sapiens (Human), UniProt Q460N5)
Assay: Enzymatic assay for inhibition of PARP14 (DELFIA, auto-modification with biotin-NAD)
Assay type: biochemical
Conditions: auto-modification of PARP14 by biotin-NAD, 50 nM PARP14, 3 μM biotin-NAD
Outline: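 His-TEV-tagged PARP14 catalytic domain (50 nM) preincubated with compound 30 min at 25 °C, then auto-modified with 3 μM biotin-NAD for 3 h at 25 °C in HEPES pH 8 buffer with DTT. IC50 from 4-parameter fit, rucaparib and DMSO as controls.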

catalytic domain of human PARP14, sequence (Q460N5 1611-1801): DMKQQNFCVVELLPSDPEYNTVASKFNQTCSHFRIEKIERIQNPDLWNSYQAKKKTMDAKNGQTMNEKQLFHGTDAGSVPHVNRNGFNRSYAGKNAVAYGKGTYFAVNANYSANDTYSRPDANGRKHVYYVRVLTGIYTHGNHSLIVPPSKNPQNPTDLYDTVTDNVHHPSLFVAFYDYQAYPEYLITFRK

IC50 | SMILES
1000 to 10000 nM | Cc1cccc2c(=O)[nH]c(CSC3CCCN(C)C3)nc12 (stereo not drawn) [Example 32, 8-Methyl-2-(((1-methylpiperidin-3-yl)thio)methyl)quinazolin-4(3H)-one]
> 10000 nM | CC(=O)N1CCCC(Nc2ccc3c(=O)[nH]c(CSC4CCOCC4)nc3c2)C1 (stereo not drawn) [Example 132, 7-((1-Acetylpiperidin-3-yl)amino)-2-(((tetrahydro-2H-pyran-4-yl)thio)methyl)quinazolin-4(3H)-one]
< 1000 nM | CC(C)C(=O)N1CCC(COc2cc(F)c3c(=O)[nH]c(CSC4CCOCC4)nc3c2)CC1 [Example 397]
1000 to 10000 nM | COc1cccc2c(=O)[nH]c(CSC3CCOCC3)nc12 [Example 6]
< 1000 nM | O=c1[nH]c(CSC2CCCNCC2)nc2cc(NC3CCCC3)ccc12 (stereo not drawn) [Example 190, 2-((azepan-4-ylthio)methyl)-7-(cyclopentylamino)quinazolin-4(3H)-one]
< 1000 nM | CC(=O)N[C@H]1CC[C@@H](SCc2nc3cc(OCC4CC4)cc(F)c3c(=O)[nH]2)CC1 [Example 329, N-((cis)-4-(((7-(Cyclopropylmethoxy)-5-fluoro-4-oxo-3,4-dihydroquinazolin-2-yl)methyl)thio)cyclohexyl)acetamide]
< 1000 nM | O=c1[nH]c(CS[C@H]2CC[C@@H](CO)CC2)nc2cc(NC3CCCCC3)ccc12 [Example 137, 7-(Cyclohexylamino)-2-(((cis-4-(hydroxymethyl)cyclohexyl)thio)methyl) quinazolin-4(3H)-one]
< 1000 nM | O=c1[nH]c(CSC2CCOCC2)nc2cc(NCCC3CCOCC3)ccc12 [Example 256, 7-((2-(Tetrahydro-2H-pyran-4-yl)ethyl)amino)-2-(((tetrahydro-2H-pyran-4-yl)thio)methyl)quinazolin-4(3H)-one]
< 1000 nM | COC(=O)N1CCC(COc2cc(F)c3c(=O)[nH]c(CSC4CCOCC4)nc3c2)CC1 [Example 410]
1000 to 10000 nM | O=c1[nH]c(CSC2CCC(O)CC2)nc2cc(Nc3ccccc3)ccc12 (stereo not drawn) [Example 97, 2-(((4-Hydroxycyclohexyl)thio)methyl)-7-(phenylamino)quinazolin-4(3H)-one]
< 1000 nM | CS(=O)(=O)N1CCC[C@@H](Nc2cc(F)c3c(=O)[nH]c(CS[C@H]4CC[C@H](O)CC4)nc3c2)C1 [Example 269, 5-Fluoro-2-(((trans-4-hydroxycyclohexyl)thio)methyl)-7-(((R)-1-(methylsulfonyl)piperidin-3-yl)amino)quinazolin-4(3H)-one]
< 1000 nM | O=c1[nH]c(CSC2CCOCC2)nc2cc(NC3CCN(C4COC4)CC3)cc(F)c12 [Example 302, 5-Fluoro-7-((1-(oxetan-3-yl)piperidin-4-yl)amino)-2-(((tetrahydro-2H-pyran-4-yl)thio)methyl)quinazolin-4(3H)-one]
1000 to 10000 nM | Cc1cccc2c(=O)[nH]c(CS[C@H]3CCC[C@@H](CO)C3)nc12 (relative stereo) [Example 71, 2-(((cis-3-(Hydroxymethyl)cyclohexyl)thio)methyl)-8-methylquinazolin-4(3H)-one]
< 1000 nM | O=c1[nH]c(CSC2CCOCC2)nc2cc(NCC3CCOC3)c(F)c(F)c12 (stereo not drawn) [Example 322, 5,6-Difluoro-2-(((tetrahydro-2H-pyran-4-yl)thio)methyl)-7-(((tetrahydrofuran-3-yl)methyl)amino)quinazolin-4(3H)-one]
1000 to 10000 nM | Cc1cccc2c(=O)[nH]c(CS[C@H]3CC[C@@H](CO)OC3)nc12 (relative stereo) [Example 221, 2-(((Cis-6-(Hydroxymethyl)tetrahydro-2H-pyran-3-yl)thio)methyl)-8-methylquinazolin-4(3H)-one]
< 1000 nM | O=c1[nH]c(CS[C@H]2CC[C@H](C(=O)O)CC2)nc2cc(NC3CCCC3)cc(F)c12 [Example 217, trans-4-(((7-(Cyclopentylamino)-5-fluoro-4-oxo-3,4-dihydroquinazolin-2-yl)methyl)thio)cyclohexane-1-carboxylic acid]
< 1000 nM | O=c1[nH]c(CSC2CCOCC2)nc2cc(NCCN3CCOCC3)cc(F)c12 [Example 287, 5-Fluoro-7-((2-morpholinoethyl)amino)-2-(((tetrahydro-2H-pyran-4-yl)thio)methyl)quinazolin-4(3H)-one]

IC50 | SMILES
1000 to 10000 nM | O=c1[nH]c(CSC2CCOCC2)nc2cc(NCc3ccccn3)ccc12 [Example 118, 7-((Pyridin-2-ylmethyl)amino)-2-(((tetrahydro-2H-pyran-4-yl)thio)methyl)quinazolin-4(3H)-one]
< 1000 nM | O=c1[nH]c(CSC2CCN(Cc3ccccn3)CC2)nc2cc(NC3CCCC3)cc(F)c12 [Example 281, 7-(Cyclopentylamino)-5-fluoro-2-(((1-(pyridin-2-ylmethyl)piperidin-4-yl)thio)methyl)quinazolin-4(3H)-one]
< 1000 nM | O=c1[nH]c(CSC2CCOCC2)nc2cc(OCC3COC3)cc(F)c12 [Example 343]
< 1000 nM | O=c1[nH]c(CSC2CCOCC2)nc2cc(NC3CCC3)ccc12 [Example 122, 7-(Cyclobutylamino)-2-(((tetrahydro-2H-pyran-4-yl)thio)methyl)quinazolin-4(3H)-one]
< 1000 nM | O=c1[nH]c(CS[C@H]2CC[C@@H](O)CC2)nc2cc(NC3CCCC3)ccc12 [Example 103, 7-(Cyclopentylamino)-2-(((cis-4-hydroxycyclohexyl)thio)methyl) quinazolin-4(3H)-one]
< 1000 nM | NC(=O)[C@H]1CC[C@H](SCc2nc3cc(NC4CCCC4)cc(F)c3c(=O)[nH]2)CC1 [Example 218, trans-4-(((7-(Cyclopentylamino)-5-fluoro-4-oxo-3,4-dihydroquinazolin-2-yl)methyl)thio)cyclohexane-1-carboxamide]
< 1000 nM | O=c1[nH]c(CSC2CCN(CC(F)(F)F)CC2)nc2cc(NC3CCCC3)ccc12 [Example 254, 7-(Cyclopentylamino)-2-(((1-(2,2,2-trifluoroethyl)piperidin-4-yl)thio)methyl)quinazolin-4(3H)-one]
> 10000 nM | O=c1[nH]c(CSC2CCOCC2)nc2cc(NC3CCCC3)cnc12 [Example 188, 7-(cyclopentylamino)-2-(((tetrahydro-2H-pyran-4-yl)thio)methyl)pyrido[3,2-d]pyrimidin-4(3H)-one]
1000 to 10000 nM | Cc1nn(C)cc1CN1CCC(SCc2nc3c(C)cccc3c(=O)[nH]2)CC1 [Example 144, 2-(((1-((1,3-Dimethyl-1H-pyrazol-4-yl)methyl)piperidin-4-yl)thio)methyl)-8-methylquinazolin-4(3H)-one trifluoroacetate]
< 1000 nM | O=c1[nH]c(CSC2CCOCC2)nc2nc(NC3CCCC3)ccc12 [Example 186, 7-(cyclopentylamino)-2-(((tetrahydro-2H-pyran-4-yl)thio)methyl)pyrido[2,3-d]pyrimidin-4(3H)-one]
< 1000 nM | O=c1[nH]c(CS[C@H]2CC[C@H](O)CC2)nc2cc(Nc3ccccc3)ccc12 [Example 98, 2-(((trans-4-Hydroxycyclohexyl)thio)methyl)-7-(phenylamino)quinazolin-4(3H)-one]
< 1000 nM | O=c1[nH]c(CSC2CCCCC2)nc2cc(NC3CCCC3)c(F)c(F)c12 [Example 310, 2-((Cyclohexylthio)methyl)-7-(cyclopentylamino)-5,6-difluoroquinazolin-4(3H)-one]
< 1000 nM | O=c1[nH]c(CSC2CCOCC2)nc2cc(NC[C@H]3CCOC3)c(F)c(F)c12 [Example 323b, (R)-5,6-Difluoro-2-(((tetrahydro-2H-pyran-4-yl)thio)methyl)-7-(((tetrahydrofuran-3-yl)methyl)amino)quinazolin-4(3H)-one]
< 1000 nM | O=c1[nH]c(CSC2CCN(CC(F)(F)F)CC2)nc2cc(NC3CCCC3)cc(F)c12 [Example 263, 7-(Cyclopentylamino)-5-fluoro-2-(((1-(2,2,2-trifluoroethyl)piperidin-4-yl)thio)methyl)quinazolin-4(3H)-one]
> 10000 nM | O=c1[nH]c(CSC2CCOCC2)nc2cc(NC3CCCC3)cc(CF)c12 [Example 225, 7-(cyclopentylamino)-5-(fluoromethyl)-2-(((tetrahydro-2H-pyran-4-yl)thio)methyl)quinazolin-4(3H)-one]
< 1000 nM | O=c1[nH]c(CSC2CCOCC2)nc2cc(NCc3cccnc3)ccc12 [Example 123, 7-((Pyridin-3-ylmethyl)amino)-2-(((tetrahydro-2H-pyran-4-yl)thio)methyl)quinazolin-4(3H)-one]
< 1000 nM | CN1CCC(SCc2nc3cc(NC4CCCC4)cc(F)c3c(=O)[nH]2)CC1 [Example 246, 7-(Cyclopentylamino)-5-fluoro-2-(((1-methylpiperidin-4-yl)thio)methyl)quinazolin-4(3H)-one]

SMILES | IC50
Cc1cc(NCC2CC2(F)F)cc2nc(CSC3CCNCC3)[nH]c(=O)c12 (stereo not drawn) [Example 284, 7-(((2,2-Difluorocyclopropyl)methyl)amino)-5-methyl-2-((piperidin-4-ylthio)methyl)quinazolin-4(3H)-one hydrochloride] | < 1000 nM
Cc1cccc2c(=O)[nH]c(CSC3CCCC(N)CC3)nc12 (stereo not drawn) [Example 53, 2-(((4-Aminocycloheptyl)thio)methyl)-8-methylquinazolin-4(3H)-one Trifluoroacetate] | < 1000 nM
Cc1cccc2c(=O)[nH]c(CSC3CCC(CN(C)C)CC3)nc12 (stereo not drawn) [Example 67, 2-(((4-((Dimethylamino)methyl)cyclohexyl)thio)methyl)-8-methylquinazolin-4(3H)-one trifluoroacetate] | < 1000 nM
O=c1[nH]c(CS[C@@H]2CCNC[C@@H]2F)nc2cc(NC3CCCC3)cc(F)c12 [Example 213b, 7-(cyclopentylamino)-5-fluoro-2-((((3S,4R)-3-fluoropiperidin-4-yl)thio)methyl)quinazolin-4(3H)-one] | < 1000 nM
O=c1[nH]c(CSC2CCNCC2)nc2cc(NC3CCCC3)cc(F)c12 [Example 176, 7-(Cyclopentylamino)-5-fluoro-2-((piperidin-4-ylthio)methyl)quinazolin-4(3H)-one Hydrochloride] | < 1000 nM
